Laboratory results published in patent US12692463B2, “Blends of alcohol ethoxylate and methyl ester sulfonate in unit dose products for improved mildness” (Henkel AG & Co. KGaA, priority 2023, dated 2026).

Experiment: Percent swelling of water-soluble film strips submerged in detergent formula
Format: physicochemical
Conditions: Minitab mixture regression on solvent component proportions, Formulas 7-16
Description: The term % swelling as used in the present application means the percent increase or decrease in weight, for example the weight of a pouch strip, such as a polyvinyl alcohol strip, following submersion in a detergent composition for a given period of time, for example twenty-four hours (hr). The % swelling is calculated as described in the examples by taking a post-soaking weight, subtracting an initial, pre-soaking weight, and dividing by the initial, pre-soaking weight. To measure the percent (%) swelling, a fresh sheet of film was traced and cut into three identical film strips (3 cm wide by 8.5 cm long) for each formula being tested. Strips were labeled #1, #2, and #3 and placed into a tared petri dish one by one, recording the weights of each piece of film individually. Strips #1 and #2 were placed parallel to one another on the bottom of the petri dish and strip #3 was laid perpendicularly over strips #1 and #2. The petri dish was then filled half way, ensuring all film strips were submerged in the formula being tested. The petri dish was wrapped with parafilm, sealing around the edge of the petri dish. […] The cleaned film strip #3 was placed into a clean, tared petri dish lid, and the final weight of the film strip was recorded. […] Percent (%) swelling ratios were determined for Formulas 7-16 using polyvinyl alcohol (PVA) strips. […]

| Structure (SMILES) | estimated regression coefficient for % swelling |
| --- | --- |
| CC(O)CO (centres unmarked) [PG, Propylene Glycol] | 0.4263 |
| OCC(O)CO [Glycerin] | 0.8037 |
